Data published in US20080146555A1, “Uses of Kinase Inhibitors and Compositions Thereof” (GPC Biotech, Inc, priority 2004, published 2008).
Structures can show the parent of a compound that is named as a salt. Where two headings read alike, the source gives them in different places.

What was measured:
Fes = molecular target: T1, Fes (Homo sapiens, UniProt P07332); assay: Fes kinase assay; assay type: biochemical
T1 construct: purchased Upstate 14-473
Method: • 1. 2.5× Reaction Buffer: 50 mM MOPS, pH 7.0, 2.5 mM EDTA. • 2. Poly(Glu4-Tyr) (4:1): Prepare a 1 mg/ml stock in sterile distilled water. Add 2.5 μl per assay point for a final concentration of 0.1 mg/ml. • 3. Enzyme Dilution Buffer (EDB): 20 mM MOPS, pH 7.0, 1 mM EDTA, 5% glycerol, 0.01% Brij-35, 0.1% β-mercaptoethanol, 1 mg/ml BSA. • 4. Fes/Fps, active: Dilute to 4-40 ng/μl with EDB. Use 2.5 μl per assay. • 5. Magnesium/ATP Cocktail (Catalog #20-113): 75 mM MgCl2 and 500 μM ATP in 20 mM MOPS, pH 7.2, 25 mM β-glycerol phosphate, 5 mM EGTA, 1 mM sodium orthovanadate, 1 mM dithiothreitol. • 6. [γ-^32P]ATP: Stock 1 mCi/100 μl (3000 Ci/mmol, obtained from PerkinElmer, Catalog #LU002A). Make 10 μl aliquots (100 μCi/vial). Before starting the assay, dilute the Magnesium/ATP Cocktail 1:1 with sterile, distilled water. Then dilute an aliquot of [γ-^32P]ATP to 1 μCi/μl with 90 μl of the diluted Magnesium/ATP Cocktail. Use 10 μl per assay point for a final ATP concentration of 100 μM per assay point.
• 1. Add 10 μl of 2.5× Reaction Buffer per assay. • 3. Add 2.5 μl of Fes/Fps, active (10-100 ng). • 4. Add 10 μl of the diluted [γ-^32P]ATP mixture. • 5. Incubate for 10 minutes at 30° C. • 6. Spot 20 μl onto the center of a 2 cm×2 cm […]. • 7. Wash the assay squares three times for 5 minutes with 0.75% phosphoric acid. • 8. Wash the assay squares once for 5 minutes with acetone. • 9. Transfer the assay squares to vials and add 5 ml scintillation cocktail. • 10. Read in scintillation counter. Compare cpm of enzyme samples to cpm of control samples.

A129 = assay: SRB cytotoxicity, A129 parental cells; assay type: cell-based, human; settings: Homo sapiens, 72 h
Method: In these experiments, the P-glycoprotein expressing NCI-Adr resistant subline (Vickers et al., 1989. Mol Endocrinology 3 (1):157-164) was used. […] Briefly, cells were plated in 96 well dishes 24 hours prior to compound addition. Where noted, they were exposed to verapamil for 4 hours prior to compound addition and then throughout the treatment period (72 hours). The assay was terminated with the addition of cold TCA to a final concentration of 10% and the plates were incubated for one hour at 4° C. The plates were then washed 5 times with water and 100 μl of a Sulforhodamine B solution (4%) was added to each well. The plate was then incubated for 10 minutes at room temperature before removal of unbound dye by washing with 1% acetic acid.
The parental non-mutated cell line A129 was used as a control.

GSK3β = molecular target: T2, GSK3β (Homo sapiens, UniProt P49841); assay: GSK3β kinase assay; assay type: biochemical
T2 construct: purchased Upstate 14-306
T2 sequence (P49841 whole entry): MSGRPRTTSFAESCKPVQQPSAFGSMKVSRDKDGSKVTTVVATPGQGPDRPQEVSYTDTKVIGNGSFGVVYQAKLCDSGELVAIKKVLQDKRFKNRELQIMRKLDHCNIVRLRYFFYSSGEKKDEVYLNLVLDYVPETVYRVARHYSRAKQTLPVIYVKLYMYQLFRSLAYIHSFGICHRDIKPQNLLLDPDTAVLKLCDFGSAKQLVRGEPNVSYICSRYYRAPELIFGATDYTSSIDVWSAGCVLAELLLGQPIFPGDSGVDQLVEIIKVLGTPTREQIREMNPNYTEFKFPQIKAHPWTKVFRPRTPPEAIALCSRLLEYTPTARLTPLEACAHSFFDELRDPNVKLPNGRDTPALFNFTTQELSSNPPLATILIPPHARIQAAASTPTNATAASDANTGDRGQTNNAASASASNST
Method: • 1. Reaction Buffer: 8 mM MOPS, pH 7.0, 0.2 mM EDTA, 110 mM magnesium acetate. • 2. GSK3β, active: 5-40 ng per assay point. Dilute to 0.5-4 ng/μl in Reaction Buffer containing 0.03% Brij-35. • 3. Phospho-Glycogen Synthase Peptide-2 (Catalog #12-241): Prepare a 250 μM stock. Use 10 μl per assay point for a final assay concentration of 62.5 μM per assay point. • 4. [γ-^32P]ATP: Stock 1 mCi/100 μl (3000 Ci/mmol, obtained from Perkin Elmer, Cat. # BLU002A). Make 10 μl aliquots (100 μCi/vial). Before starting the assay, dilute an aliquot to 1 μCi/μl with 90 μl of 75 mM magnesium chloride and 500 μM unlabeled ATP in 20 mM MOPS, pH 7.2, 25 mM β-glycerol phosphate, 5 mM EGTA, 1 mM sodium orthovanadate, 1 mM dithiothreitol.
• 1. Add 10 μl of Reaction Buffer per assay. • 2. Add 10 μl of substrate peptide [final assay concentration of 62.5 μM]. • 3. Add 10 μl of GSK3β, active [5-40 ng per assay]. • 4. Add 10 μl of the diluted [^32P]ATP mixture. • 5. Incubate for 30 minutes at 30° C. • 6. Spot 25 μl onto the center of a 2 cm×2 cm P81 paper square. • 7. Wash the assay squares five times with 0.75% phosphoric acid. • 8. Wash the assay squares once with acetone. • 9. Transfer the assay squares to vial and add 5 ml scintillation cocktail. • 10. Read in scintillation counter. Compare cpm of enzyme samples to cpm of control samples that contain no enzyme (background control).

[1] = read-out: FES Inhibition (IC50)
[2] = kinase panel, 10 μM ATP, read-out: GSK3β IC50
[3] = read-out: GSK3B Inhibition (IC50)

T1 sequence (P07332 whole entry): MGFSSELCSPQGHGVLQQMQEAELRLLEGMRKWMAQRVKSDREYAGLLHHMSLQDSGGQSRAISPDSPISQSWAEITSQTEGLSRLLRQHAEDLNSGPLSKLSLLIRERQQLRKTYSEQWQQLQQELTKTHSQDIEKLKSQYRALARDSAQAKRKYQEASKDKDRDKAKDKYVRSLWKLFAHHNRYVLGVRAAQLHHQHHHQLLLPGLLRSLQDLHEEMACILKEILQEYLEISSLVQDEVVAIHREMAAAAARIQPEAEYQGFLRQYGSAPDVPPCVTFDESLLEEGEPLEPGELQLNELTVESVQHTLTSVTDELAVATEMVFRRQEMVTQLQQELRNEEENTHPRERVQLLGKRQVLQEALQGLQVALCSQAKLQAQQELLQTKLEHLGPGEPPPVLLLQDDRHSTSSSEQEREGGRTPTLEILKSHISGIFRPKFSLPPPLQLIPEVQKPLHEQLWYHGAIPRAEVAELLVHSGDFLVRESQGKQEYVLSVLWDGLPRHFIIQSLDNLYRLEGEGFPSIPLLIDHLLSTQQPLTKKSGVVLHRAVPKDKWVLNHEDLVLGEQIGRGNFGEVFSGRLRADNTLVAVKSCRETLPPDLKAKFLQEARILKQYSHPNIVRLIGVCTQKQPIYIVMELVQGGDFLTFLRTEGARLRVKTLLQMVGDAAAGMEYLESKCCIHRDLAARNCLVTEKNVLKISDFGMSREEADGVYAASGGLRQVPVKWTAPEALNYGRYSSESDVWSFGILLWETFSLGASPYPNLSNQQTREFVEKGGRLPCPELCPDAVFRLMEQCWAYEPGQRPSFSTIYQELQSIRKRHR

Row | SMILES | IC50 (Fes; [1]) | IC50 (A129) | IC50 (GSK3β; [2]) | IC50 (GSK3β; [3]) | IC50 (Fes; kinase panel, read-out: Fes IC50)
1 | CC(C)N1CCN(C(=O)COc2ccc(-c3n[nH]c4c3C(=O)c3c(NC(=O)NN5CCOCC5)cccc3-4)cc2)CC1 [Compound A37] | < 100 nM | 5.7 nM | < 3 nM | < 5 nM | –
2 | COCCN1CCN(Cc2ccc(-c3n[nH]c4c3C(=O)c3c(NC(=O)NN5CCOCC5)cccc3-4)cc2)CC1 [Compound B16, N-[3-(4-{[4-(2-methoxyethyl)piperazinyl]methyl}phenyl)-4-oxoindeno[2,3-d]pyrazol-5-yl](morpholin-4-ylamino)carboxamide dihydrochloride] | < 100 nM | 8.7 nM | < 100 nM | < 5 nM | < 100 nM
